Results published in patent publication US20030077222A1, “Individualization of therapy with analgesics” (McGill University, priority 2001, published 2003).
Like-named read-outs stand apart in the source and are kept apart here. Marks after values point to notes of the source that are not given here.

Assays:
[1] = cited from earlier work
1X-Ab = assay: Competitive antigen ELISA, cross-reactivity of 1X-Ab; format: binding, rabbit; settings: for % Cross-Reaction 1X-Ab: competitive antigen ELISA, 0 = absence of inhibition or inhibition no higher than 40% at highest concentration tested (5×10^−3 M)
Experimental: (§1) Four mature females New Zealand white rabbits (Charles River Canada, St-Constant, Que., Canada) are used for antibody production. The protocol employed in this study was approved by the McGill University Animal Care Committee in accordance with the guidelines from the Canadian Council on Animal Care. Antibodies of the present invention may be monoclonal or polyclonal antibodies.
(§2) A 0.5 mL aliquot of the emulsion ([…] of antigen) is injected per rabbit intramuscularly or subcutaneously. Rabbits are subsequently boosted at intervals of three weeks with […] of antigen emulsified in incomplete Freund's adjuvant. […] Antisera are stored at 4° C. in the presence of 0.01% sodium azide.
(§3) Buffers and water without additives are filtered through millipore filters and kept for 1 week. BSA, antibodies, Tween™ 20 and horse radish peroxidase conjugates are added to these buffers and water just prior to use. Urine samples are usually collected 4 hours after drinking a cup of coffee (instant or brewed with approximately 100 mg of caffeine per cup) and stored at −80° C. The urine samples are diluted 10 times with sodium phosphate buffer (620 mosm, pH 7.50) and are subsequently diluted with water to give concentrations of AAMU and 1X no higher than 3×10^−6 M in the ELISA. All the pipettings are done with an eight-channel pipette, except those of the antibody and sample solutions. Starting with the last well, 100 μL of a carbonate buffer (100 mM, pH 9.6) containing 2.5 μg mL−^1 antibodies are added to each well. After 90 min. at room temperature, the wells are washed three times with […] of TPB: isotonic sodium phosphate buffer (310 mosm, pH 7.50) containing 0.05% Tween™ 20.
(§4) After the initial wash, unoccupied sites are blocked by incubation for 90 min. at room temperature with 100 μL TBP containing 3% BSA. The wells are washed four times with 100 μL TPB. […] The microplate is gently shaken with an orbital shaker at room temperature for 3-4 hours. The wells are washed three times with 100 μL TPB containing 1% BSA and three times with water containing 0.05% Tween™ 20. To the washed plate is added 150 μL of a substrate buffer composed of citric acid (25 mM) and sodium phosphate dibasic buffer (50 mM, pH 5.0) containing 0.06% hydrogen peroxide and 0.04% o-phenylenediamine hydrochloride.
(§5) Buffers and water without additives were filtered through millipore filters and kept for 1 week. BSA, antibodies, Tween™ 20 and horse radish peroxidase conjugates were added to these buffers and water just prior to use. Urine samples were usually collected 4 hours after drinking a cup of coffee (instant or brewed with approximately 100 mg of caffeine per cup) and stored at −80° C. They were diluted 10 times with sodium phosphate buffer (620 mosm, pH 7.50) and were subsequently diluted with water to give concentrations of AAMU and 1X no higher than 3×10^−6 M in the ELISA. All the pipettings were done with an eight-channel pipette, except those of the antibody and sample solutions. Starting with the last well, 100 μL of a carbonate buffer (100 mM, pH 9.6) containing 2.5 μg mL−^1 antibodies was pipetted. After 90 min. at room temperature, the wells were washed three times with 100 μL of TPB: isotonic sodium phosphate buffer (310 mosm, pH 7.50) containing 0.05% Tween™ 20.
(§6) After the initial wash, unoccupied sites were blocked by incubation for 90 min. at room temperature with 100 μL TBP containing 3% BSA. The wells were washed four times with 100 μL TPB. […] The microplate was gently shaken with an orbital shaker at room temperature for 3-4 hours. The wells were washed three times with […] TPB containing 1% BSA and three times with water containing 0.05% Tween™ 20. To the washed plate was added 150 μL of a substrate buffer composed of citric acid (25 mM) and sodium phosphate dibasic buffer (50 mM, pH 5.0) containing 0.06% hydrogen peroxide and 0.04% o-phenylenediamine hydrochloride.

AAMU-Ab = assay: Competitive antigen ELISA, cross-reactivity of AAMU-Ab; format: binding, rabbit; settings: for % Cross-Reaction AAMU-Ab: competitive antigen ELISA, 0 = absence of inhibition or inhibition no higher than 40% at highest concentration tested (5×10^−3 M)
Experimental: as §1, §2, §3, §4, §5, §6

[2] = cited from earlier work; remark: listed apart in the source

| SMILES | % Cross-Reaction 1X-Ab (1X-Ab) [%] | % Cross-Reaction AAMU-Ab (AAMU-Ab) | other results |
| --- | --- | --- | --- |
| Nc1ccc(S(=O)(=O)c2ccc(N)cc2)cc1 [dapsone] | – | – | adverse reactions to dapsone ([1]; fast acetylators): 17%; adverse reactions to dapsone ([1]; slow acetylators): 46% |
| Cn1cnc2c1c(=O)[nH]c(=O)n2C [3,7-Dimethyl Xanthine (Theobromine), 3,7-Dimethyl Xanthine] | 0 | 0% | – |
| O=c1[nH]c(=O)c2[nH]cnc2[nH]1 [Xanthine] | 0 | 0^a % | – |
| CC(=O)Nc1c(N)n(C)c(=O)[nH]c1=O [5-Acetamino-6-amino-1-methyluracil] | 0 | 100% | IC50 (AAMU-Ab; read-out: concentration required for 50% inhibition in the competitive antigen ELISA, AAMU-Ab): 1500 nM |
| O=c1[nH]c(=O)c2[nH]c(=O)[nH]c2[nH]1 [Uric acid] | 0 | 0% | – |
| CC(=O)Nc1c(N)n(C)c(=O)n(C)c1=O [5-Acetamino-6-amino-1,3-dimethyluracil] | 0 | 0% | – |
| CC(=O)Nc1c(N)[nH]c(=O)[nH]c1=O [5-Acetamino-6-amino-uracil] | 0 | 0.6% | – |
| Cn1cnc2[nH]c(=O)[nH]c(=O)c21 [7-Methyl Xanthine] | 0 | 0% | – |
| Cn1c(=O)c2[nH]cnc2n(C)c1=O [1,3-Dimethyl Xanthine (Theophylline), 1,3-Dimethyl Xanthine] | 0.2 | 0% | – |
| Cn1c(=O)[nH]c2nc[nH]c2c1=O [1-Methyl Xanthine (1X), 1-Methyl Xanthine] | 100 | 0% | IC50 (1X-Ab; read-out: concentration required for 50% inhibition in the competitive antigen ELISA, 1X-Ab): 10 µM |
| Nc1nc2nc[nH]c2c(=O)[nH]1 [Guanine] | 0 | 0% | – |
| Cn1c(=O)c2c(ncn2C)n(C)c1=O [1,3,7-Trimethyl Xanthine (Caffeine), 1,3,7-Trimethyl Xanthine] | 0 | 0% | – |
| Cn1c(=O)[nH]c2[nH]c(=O)n(C)c2c1=O [1,7-Dimethyluric acid] | 0 | 0% | – |
| COc1cccc(C2(O)CCCCC2CN(C)C)c1 (stereo not drawn) [tramadol] | – | – | experimental pain model procedures with statistically significant effects ([2]; extensive metabolizers (CYP2D6), 15 individuals): seven of seven; experimental pain model procedures with statistically significant effects ([2]; poor metabolizers (CYP2D6), 12 individuals): three of seven |
| Cn1c(=O)[nH]c(=O)c2[nH]cnc21 [3-Methyl Xanthine] | 0 | 0% | – |
| O=c1cc[nH]c(=O)[nH]1 [Uracil] | 0 | 0% | – |
| O=c1[nH]cnc2nc[nH]c12 [Hypoxanthine] | 0 | 0% | – |
| Cn1c(=O)[nH]c2[nH]c(=O)[nH]c2c1=O [1-Methyluric acid] | 11 | 0% | – |
| Cn1c(=O)[nH]c2ncn(C)c2c1=O [1,7-Dimethyl Xanthine (Paraxanthine), 1,7-Dimethyl Xanthine] | 0.5 | 0% | – |
| Cc1nc2[nH]c(=O)[nH]c(=O)c2[nH]1 [8-Methyl Xanthine] | 0 | 0% | – |
